Consider 1 compound from publication PMC2844711 (The Journal of neuroscience : the official journal of the …, 2010).

As a reminder, the EC50 is the concentration that produces a half-maximal response. Low values mean greater potency, high ones weaker potency.

The target in this assay is GluA4 (Rattus norvegicus, UniProt P19493, L505Y/L672V). Nature of the assay: whole-cell patch clamp in tsA201 cells, agonist dose-response. Format: cell-based.
GluA4, sequence (P19493 21-902 L505Y/L672V): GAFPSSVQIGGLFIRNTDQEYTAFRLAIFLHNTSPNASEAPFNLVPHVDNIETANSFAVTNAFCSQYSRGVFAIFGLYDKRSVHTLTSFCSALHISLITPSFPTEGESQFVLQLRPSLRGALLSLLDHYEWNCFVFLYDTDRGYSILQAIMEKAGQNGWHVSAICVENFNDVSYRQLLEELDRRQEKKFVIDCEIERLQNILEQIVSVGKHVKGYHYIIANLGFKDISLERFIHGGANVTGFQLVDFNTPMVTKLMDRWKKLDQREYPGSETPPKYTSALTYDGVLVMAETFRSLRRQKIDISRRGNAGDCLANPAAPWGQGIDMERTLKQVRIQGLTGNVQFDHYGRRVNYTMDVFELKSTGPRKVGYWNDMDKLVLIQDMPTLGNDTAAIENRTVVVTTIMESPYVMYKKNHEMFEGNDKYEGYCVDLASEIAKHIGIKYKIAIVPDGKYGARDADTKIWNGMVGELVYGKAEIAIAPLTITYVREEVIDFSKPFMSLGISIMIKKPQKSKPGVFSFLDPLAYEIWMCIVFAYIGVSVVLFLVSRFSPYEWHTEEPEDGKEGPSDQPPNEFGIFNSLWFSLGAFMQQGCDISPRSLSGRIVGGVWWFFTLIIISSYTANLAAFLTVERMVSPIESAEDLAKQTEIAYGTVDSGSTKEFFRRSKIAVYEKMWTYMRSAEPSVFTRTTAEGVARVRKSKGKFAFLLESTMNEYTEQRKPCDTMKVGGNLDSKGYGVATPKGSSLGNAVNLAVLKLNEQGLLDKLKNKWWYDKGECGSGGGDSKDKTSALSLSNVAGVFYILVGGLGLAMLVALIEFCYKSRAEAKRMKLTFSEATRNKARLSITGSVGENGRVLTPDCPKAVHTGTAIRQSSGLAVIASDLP

Regarding `C=C(C)[C@H]1CN[C@H](C(=O)O)[C@H]1CC(=O)O` [KA, kainate], the EC50 worked out at 324 ± 35 µM.
